The target of data set [1] is T1, rat α1β2γ2 GABAA Receptor (Rattus norvegicus, UniProt P18508+P62813+P63138, INS375LLRMFSFK).
T1 construct: from linearized pBluescript vectors containing receptor coding regions; expressed in transfected cells; host or cells: Xenopus laevis oocytes injected with in vitro transcribed capped mRNA
Description: Xenopus oocyte two-electrode voltage-clamp electrophysiology. The data set is classed as cell-based. The following applies: for Oocyte electrophysiology, ratio of currents in presence/absence of compound, 0.1 μM: 0.1 μM compound co-applied with 2 μM GABA; for Oocyte electrophysiology, ratio of currents in presence/absence of compound, 0.1 μM / Oocyte electrophysiology, ratio of currents in presence/absence of compound, 1 μM / Oocyte electrophysiology, ratio of currents in presence/absence of compound, 10 μM: −70 mV; for Oocyte electrophysiology, ratio of currents in presence/absence of compound, 1 μM: 1 μM compound co-applied with 2 μM GABA; for Oocyte electrophysiology, ratio of currents in presence/absence of compound, 10 μM: 10 μM compound co-applied with 2 μM GABA; for Gating (10 μM), ratio of compound only current/2 μM GABA current: direct current gated by 10 μM compound in the absence of GABA. As for the experimental part:
Stage V-VI oocytes were harvested from sexually mature female Xenopus laevis (Xenopus One, Northland, Mich.) under 0.1% tricaine (3-aminobenzoic acid ethyl ester) anesthesia. Oocytes were defolliculated by shaking for 20 min at 37° C. in collagenase (2 mg/ml) dissolved in calcium-free solution containing (in mM): 96 NaCl, 2 KCl, 1 MgCl2, and 5 HEPES at pH 7.4. Capped mRNA, encoding rat GABAA receptor α1, β2 and γ2L subunits was transcribed in vitro using the mMESSAGE mMachine Kit (Ambion, Austin, Tex.) from linearized pBluescript vectors containing receptor coding regions. Subunit transcripts were injected in equal parts (20-40 ng total RNA) 8-24 hours following defolliculation. Oocytes were incubated up to 5 days at 18° C. in ND96 medium containing (in mM): 96 NaCl, 1 KCl, 1 MgCl2, 2 CaCl2 and 5 HEPES at pH 7.4, supplemented with pyruvate (5 mM), penicillin (100 U/ml), streptomycin (100 μg/ml) and gentamycin (50 μg/ml). The cDNAs for the rat GABAA-receptor subunits were originally provided by A. Tobin, University of California, Los Angels (α1), P. Malherbe, Hoffman-La Roche, Switzerland (β2), C. Fraser, National Institute on Alcohol Abuse and Alcoholism (γ2L).
Two-electrode voltage-clamp experiments were performed with a Warner OC725 amplifier 2-5 days following RNA injection. The extracellular recording solution was ND96 medium with no supplements. Intracellular recording pipettes were filled with 3 M KCl and had open tip resistances of ˜1 MΩ. Drugs were applied from a common tip via a gravity-driven multibarrel drug-delivery system. Steroids were simultaneously co-applied with GABA. Cells were clamped at −70 mV for all experiments, and peak current during 20 s drug applications was measured. Data acquisition and analysis were performed with pCLAMP software (Axon Instruments, California). Statistical differences were determined using a two-tailed Student's t-test.
The GABA concentration used for the control response was 2 μM. Each compound was evaluated on at least four different oocytes at the concentrations indicated, and the results reported are the ratio of the currents measured in the presence/absence of added compound. (G) represents direct current gated by 10 μM compound in the absence of GABA, and this current is reported as the ratio of compound only current/2 μM GABA current. Error limits are calculated as standard error of the means.
(In two-electrode clamp one electrode senses voltage and the other passes current.)

In data set [2] the target is GABAA receptor ([35S]-TBPS binding site, rat brain cortical membranes). Nature of the data set: Displacement of [35S]-TBPS binding, rat brain cortical membranes. The following applies: 5 μM GABA, 2 nM [35S]-TBPS; ± standard error of the means. As for the experimental part: Rat brain cortical membranes were prepared with minor modifications of the method previously reported. (Hawkinson, J. E., et al., Correlation of Neuroactive Steroid Modulation of [^35S]t-Butylbicyclophosophorothionate and [^3H]Flunitrazepam Binding and γ-Aminobutyric AcidA Receptor Function, Mol. Pharmacol., 1994, 46, 977-985). Briefly, frozen rat cerebral cortices (Pel-freez, Rogers, Ak.) were thawed and homogenized in 10 volumes of ice-cold 0.32 M sucrose using a glass/Teflon pestle. The homogenate was centrifuged at 1500×g for 10 min at 4° C. The resultant supernatant was centrifuged at 10,000×g for 30 min at 4° C. The pellet (P2) from this centrifugation was resuspended in 200 mM NaCl, 50 mM potassium phosphate buffer, pH 7.4, and centrifuged at 10,000×g for 20 min at 4° C. This washing procedure was done a total of three times, and then pellets were resuspended in buffer (˜4 mL/brain) using a glass/Teflon pestle. The membrane suspension was aliquoted, frozen in liquid nitrogen, and stored at −80° C. prior to use.
[^35S]-TBPS Binding assays were done according to the procedure described previously (Hawkinson, J. E., et al., Correlation of Neuroactive Steroid Modulation of [^35S]t-Butylbicyclophosophorothionate and [^3H]Flunitrazepam Binding and γ-Aminobutyric AcidA Receptor Function, Mol. Pharmacol., 1994, 46, 977-985) with modifications. Briefly, aliquots of membrane solution (0.5 mg/mL final protein concentration in assay) were incubated with 5 μM GABA, 2 nM [^35S]-TBPS (45-120 Ci/mmol), and 5 μL aliquots of steroid in DMSO solution (final assay concentrations ranged from 1 nM to 10 μM), and brought to a final volume of 1 mL with 200 mM NaCl, 50 mM potassium phosphate buffer, pH 7.4. […] Assay tubes were incubated for 2 hr at room temperature. A Brandel (Gaithersburg, Md.) cell harvester was used for filtration of the assay tubes through Whatman/GF/C glass filter paper. Filter paper was rinsed with 4 mL of ice-cold buffer three times. Radioactivity bound to the filters was read by liquid scintillation counter and data was fit using Sigma Plot version 3.0 to the Hill equation i. f=Rmax/{1+([conc]/IC50)^n}
Where Rmax is the maximal effect, [conc] is steroid concentration, IC50 is the half-maximal inhibitor concentration and n is the Hill coefficient. Each data point was determined in triplicate and 2-3 full concentration-response curves were generated for each steroid.
A general note: Displacement assays read how much labelled ligand stays bound in the presence of the test substance.

Data set [3] deals with Xenopus laevis tadpoles. Description: Tadpole loss of righting (LRR) and swimming (LSR) reflexes. It counts as in vivo. The conditions noted are these: 3 h equilibration at room temperature; for EC50: Xenopus laevis, 3 h, read-out: LSR EC50 (loss of swimming response). As for the experimental part: Tadpole LRR was measured as described previously. (See, Wittmer, L. L., et al., Enantioselectivity of steroid-induced γ-aminobutyric acidA receptor modulation and anesthesia, Mol. Phar., 1996, 50:1581-1586). Briefly, groups of 10 early prelimb-bud stage Xenopus laevis tadpoles (Nasco, Fort Atkinson, Wis.) were placed in 100 mL of oxygenated Ringer's stock solution containing various concentrations of compound. Compounds were added from a 10 mM DMSO stock (final concentration of DMSO in test solutions ≦0.1%). After equilibrating at room temperature for 3 h, tadpoles were evaluated using the LRR and LSR behavioral endpoints. LRR was defined as failure of the tadpole to right itself within 5 sec after being flipped by a smooth glass rod. LSR was defined as failure of the tadpole to swim when touched by a smooth glass rod. In general, the tadpoles regained their righting and swimming reflexes when placed in fresh oxygenated Ringer's solution. Control beakers containing up to 0.6% DMSO produced no LRR or LSR in tadpoles.
Tadpole LRR and LSR concentration-response curves were fit using Sigma Plot version 3.0 to the Hill equation f=Rmax/{1+([conc]/EC50)^n}
where Rmax is the maximum effect, [conc] is the steroid concentration, EC50 is the half-maximal effective concentration, and n is the Hill coefficient.

Each structure is given as a SMILES string.

T1 sequence (P62813 28-455, stated change not applied): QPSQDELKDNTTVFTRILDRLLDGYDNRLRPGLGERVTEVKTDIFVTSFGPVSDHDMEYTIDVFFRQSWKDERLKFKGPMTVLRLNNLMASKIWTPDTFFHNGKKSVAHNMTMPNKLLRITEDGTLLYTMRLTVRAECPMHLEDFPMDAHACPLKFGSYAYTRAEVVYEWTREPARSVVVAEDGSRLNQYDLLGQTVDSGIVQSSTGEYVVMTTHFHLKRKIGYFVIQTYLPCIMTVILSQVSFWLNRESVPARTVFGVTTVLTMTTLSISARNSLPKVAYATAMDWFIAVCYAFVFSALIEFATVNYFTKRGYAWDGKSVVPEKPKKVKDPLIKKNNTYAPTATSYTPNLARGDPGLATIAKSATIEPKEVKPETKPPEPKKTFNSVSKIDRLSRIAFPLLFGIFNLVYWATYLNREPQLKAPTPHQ
T1 sequence (P63138 26-474, stated change not applied): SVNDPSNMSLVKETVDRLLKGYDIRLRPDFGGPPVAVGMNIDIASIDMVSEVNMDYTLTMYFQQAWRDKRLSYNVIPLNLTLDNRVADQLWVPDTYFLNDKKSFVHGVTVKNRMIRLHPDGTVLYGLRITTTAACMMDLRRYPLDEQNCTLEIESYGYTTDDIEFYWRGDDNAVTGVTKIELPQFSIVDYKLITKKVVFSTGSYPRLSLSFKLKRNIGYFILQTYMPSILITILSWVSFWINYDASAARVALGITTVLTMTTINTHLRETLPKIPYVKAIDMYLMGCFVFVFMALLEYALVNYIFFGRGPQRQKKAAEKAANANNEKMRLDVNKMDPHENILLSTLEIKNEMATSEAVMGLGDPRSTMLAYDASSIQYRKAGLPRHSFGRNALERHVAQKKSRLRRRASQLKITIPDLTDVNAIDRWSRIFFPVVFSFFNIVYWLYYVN
T1 sequence (P18508 with tags, fused parts or gaps INS375LLRMFSFK): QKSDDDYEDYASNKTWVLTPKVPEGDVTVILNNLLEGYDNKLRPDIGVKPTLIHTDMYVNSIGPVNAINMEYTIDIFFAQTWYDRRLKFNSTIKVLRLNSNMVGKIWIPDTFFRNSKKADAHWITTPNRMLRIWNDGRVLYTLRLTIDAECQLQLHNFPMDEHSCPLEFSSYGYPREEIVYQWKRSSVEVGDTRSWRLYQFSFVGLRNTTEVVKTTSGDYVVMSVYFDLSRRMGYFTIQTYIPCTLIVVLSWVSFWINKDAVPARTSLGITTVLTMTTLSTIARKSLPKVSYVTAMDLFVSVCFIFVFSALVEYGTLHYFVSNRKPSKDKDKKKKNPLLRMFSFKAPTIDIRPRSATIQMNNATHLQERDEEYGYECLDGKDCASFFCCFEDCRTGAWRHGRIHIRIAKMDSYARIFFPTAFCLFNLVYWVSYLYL

Turning to `CC12CCC(O)CC1CCC1C2CCC23CCCC(O)C2CCC13` [Compound 68, (3α,5α,20R)-13,24-cyclo-18,21-dinorcholane-3,20-diol], the melting point was in the range of 269 to 271 °C. Also, in data set [1], the “Oocyte electrophysiology, ratio of currents in presence/absence of compound, 0.1 μM” value came to 0.74 ± 0.05; the “Oocyte electrophysiology, ratio of currents in presence/absence of compound, 1 μM” value amounted to 0.74 ± 0.05; the “Oocyte electrophysiology, ratio of currents in presence/absence of compound, 10 μM” value came out at 0.79 ± 0.04; the “Gating (10 μM), ratio of compound only current/2 μM GABA current” value (shortened to “Gating (10 μM), ratio”) turned out to be 0.01 ± 0.02. This compound yielded an IC50 in data set [2] of 1540 nM. For the same compound, in data set [3], the “LRR ED50 (loss of righting response)” value is more than 10000 nM and the “LSR EC50 (loss of swimming response)” value is given as “None @ 10”.
`CC(=O)C1CCCC23CCC4C(CCC5CC(O)CCC54C)C2CCC13` [Compound 79, (3α,5α,20S)-1-[3-Hydroxy-13,24-cyclo-18,21-dinorcholan-20-yl]ethanone] showed a melting point of 187 to 189 °C. In data set [1], the “Oocyte electrophysiology, ratio of currents in presence/absence of compound, 0.1 μM” value turned out to be 1.00 ± 0.08; the “Oocyte electrophysiology, ratio of currents in presence/absence of compound, 1 μM” value stood at 1.13 ± 0.15; the “Oocyte electrophysiology, ratio of currents in presence/absence of compound, 10 μM” value was found to be 1.70 ± 0.12; the “Gating (10 μM), ratio” value is on record as −0.06 ± 0.04. In data set [2], this compound registered a concentration for half-maximal inhibition (IC50) of 93 ± 9 nM. Moreover, in data set [3], the “LRR ED50 (loss of righting response)” value was “None @ 10” and the “LSR EC50 (loss of swimming response)” value is on record as “None @ 10”.
`C[C@]12CC[C@@H](O)C[C@H]1CCC1C3CCC4CCC(=O)C[C@@]43CCC12` (stereo partly drawn) [Compound 4b, (3α,5β)-3-Hydroxy-13,24-cyclo-18,21-dinorcholan-23-one] had a melting point of 197 to 198 °C. Moreover, in data set [1], the “Oocyte electrophysiology, ratio of currents in presence/absence of compound, 0.1 μM” value is listed as 0.97 ± 0.03; the “Oocyte electrophysiology, ratio of currents in presence/absence of compound, 1 μM” value was 1.03 ± 0.08; the “Oocyte electrophysiology, ratio of currents in presence/absence of compound, 10 μM” value was 3.17 ± 0.42; the “Gating (10 μM), ratio” value is given as 0.01 ± 0.01. The same compound displayed an IC50 in data set [2] of 899 ± 150 nM. In addition, in data set [3], the “LRR ED50 (loss of righting response)” value is 1440 ± 20 nM and the EC50 is 3550 ± 1150 nM.
In the case of `C[C@]12CC[C@@H](O)C[C@@H]1CCC1C3CC[C@@H]4C(C#N)=CCC[C@]34CCC12` (stereo partly drawn) [Compound 57, (3α,5α)-3-Hydroxy-13,24-cyclo-18,21-dinorchol-20(22)-ene-20-carbonitrile], the melting point lay in the range of 193 to 195 °C. For the same compound, in data set [1], the “Oocyte electrophysiology, ratio of currents in presence/absence of compound, 0.1 μM” value is recorded as 0.91 ± 0.03; the “Oocyte electrophysiology, ratio of currents in presence/absence of compound, 1 μM” value is recorded as 0.96 ± 0.04; the “Oocyte electrophysiology, ratio of currents in presence/absence of compound, 10 μM” value turned out to be 3.18 ± 0.24; the “Gating (10 μM), ratio” value is given as 0.01 ± 0.02. Also, the IC50 in data set [2] amounted to 433 ± 30 nM. Moreover, in data set [3], the “LRR ED50 (loss of righting response)” value turned out to be 420 nM and the “LSR EC50 (loss of swimming response)” value is reported as “None @ 10”.
Consider `C=C1CCC[C@]23CCC4C(CC[C@H]5C[C@H](O)CC[C@]45C)C2CC[C@H]13` (stereo partly drawn) [Compound 51, (3α,5α)-20-Methylene-13,24-cyclo-18,21-dinorcholan-3-ol], for which the melting point was 211 to 213 °C. In data set [1], the “Oocyte electrophysiology, ratio of currents in presence/absence of compound, 0.1 μM” value is given as 0.90 ± 0.15; the “Oocyte electrophysiology, ratio of currents in presence/absence of compound, 1 μM” value was 0.93 ± 0.08; the “Oocyte electrophysiology, ratio of currents in presence/absence of compound, 10 μM” value was 0.95 ± 0.05; the “Gating (10 μM), ratio” value is reported as −0.06 ± 0.06. The compound further gave an IC50 in data set [2] of 181 ± 9 nM. Moreover, in data set [3], the “LRR ED50 (loss of righting response)” value was more than 10000 nM and the “LSR EC50 (loss of swimming response)” value is given as “None @ 10”.
For the compound `C[C@]12CC[C@@H](O)C[C@@H]1CCC1C3CCC4CCC(=O)C[C@@]43CCC12` (stereo partly drawn) [Compound 4a, (3α,5α)-3-Hydroxy-13,24-cyclo-18,21-dinorcholan-23-one], the melting point is 185 to 186 °C. In addition, in data set [1], the “Oocyte electrophysiology, ratio of currents in presence/absence of compound, 0.1 μM” value is reported as 1.39 ± 0.38; the “Oocyte electrophysiology, ratio of currents in presence/absence of compound, 1 μM” value was found to be 1.64 ± 0.15; the “Oocyte electrophysiology, ratio of currents in presence/absence of compound, 10 μM” value was 6.49 ± 0.59; the “Gating (10 μM), ratio” value is reported as 0.32 ± 0.01. The compound further came in with an IC50 in data set [2] of 334 ± 17 nM. In data set [3], the “LRR ED50 (loss of righting response)” value came out at 1120 ± 360 nM and the EC50 came to 3580 ± 1080 nM.
As for `C[C@]12CC[C@@H](O)C[C@@H]1CCC1C3CC[C@@H]4[C@H]5O[C@H]5CC[C@]34CCC12` (stereo partly drawn) [Compound 71, (3α,5α,20R,22S)-20,22-Epoxy-13,24-cyclo-18,21-dinorcholan-3-ol], the melting point lay within 206 to 208 °C. Besides, in data set [1], the “Oocyte electrophysiology, ratio of currents in presence/absence of compound, 0.1 μM” value is reported as 0.90 ± 0.05; the “Oocyte electrophysiology, ratio of currents in presence/absence of compound, 1 μM” value is reported as 1.05 ± 0.09; the “Oocyte electrophysiology, ratio of currents in presence/absence of compound, 10 μM” value was 1.94 ± 0.23; the “Gating (10 μM), ratio” value was 0.00 ± 0.00. This compound also gave an IC50 in data set [2] of 596 ± 71 nM. In addition, in data set [3], the “LRR ED50 (loss of righting response)” value is on record as “None @ 10” and the “LSR EC50 (loss of swimming response)” value was “None @ 10”.

The term melting point denotes the temperature, or range, at which the solid turns liquid. For orientation: IC50 means the concentration that inhibits the measured activity by half. Low readings indicate greater potency in that assay, high ones weaker potency in that assay. By EC50 is commonly meant the concentration that produces a half-maximal response.

For the origin of these results see patent US7781421B2, “Neuroactive 13, 24-cyclo-18, 21-dinorcholanes and structurally related pentacyclic steriods” (Washington University, priority 2003, dated 2010).
